Test results published in ChEMBL document CHEMBL3603744, “Structure activity relationship of C-2 ether substituted 1,5-naphthyridine analogs of oxabicyclooctane-linked novel bacterial topoisomerase inhibitors as broad-spectrum antibacterial agents (Part-5)” (Bioorg Med Chem Lett, 2015).
In brackets after ≈: the same amount, converted by molar mass. Activity calls are given as the source filed them. How the calls were made is not given here.

How the values were obtained:
Staphylococcus aureus [1] = test: Antimicrobial activity against Staphylococcus aureus infected in iv dosed mouse bacteremia survival model; format: functional
Staphylococcus aureus [2] = test: Antimicrobial activity against Staphylococcus aureus infected in orally dosed mouse bacteremia survival model; format: functional; conditions: po
Streptococcus pneumoniae = test: Antimicrobial activity against Streptococcus pneumoniae IID553 by micro broth dilution or agar based method; format: functional
Enterococcus faecium = test: Antimicrobial activity against vancomycin-resistant Enterococcus faecium VanA by micro broth dilution or agar based method; format: functional
Acinetobacter baumannii = test: Antimicrobial activity against Acinetobacter baumannii IID876 by micro broth dilution or agar based method; format: functional
Pseudomonas aeruginosa = test: Antimicrobial activity against Pseudomonas aeruginosa PAO1 by micro broth dilution or agar based method; format: functional
Staphylococcus aureus [3] = test: Resistance index, ratio of MIC for quinolone-resistant Staphylococcus aureus MS5935 to MIC for quinolone-[…]; format: functional
Staphylococcus aureus [4] = test: Antimicrobial activity against Staphylococcus aureus Smith by micro broth dilution or agar based method; format: functional
Staphylococcus aureus [5] = test: Antimicrobial activity against methicillin-resistant Staphylococcus aureus OIT971 by micro broth dilution or agar based method; format: functional, organism-based
Escherichia coli = test: Antimicrobial activity against Escherichia coli ATCC 25922 by micro broth dilution or agar based method; format: functional
Staphylococcus aureus [6] = test: Antimicrobial activity against quinolone-sensitive Staphylococcus aureus MS5935
Staphylococcus aureus [7] = test: Antimicrobial activity against quinolone-resistant Staphylococcus aureus MS5935; format: functional

Row | Structure (SMILES) | ED50 (Staphylococcus aureus [1]) | ED50 (Staphylococcus aureus [2]) | MIC (Streptococcus pneumoniae) | MIC (Enterococcus faecium) | MIC (Acinetobacter baumannii) | MIC (Pseudomonas aeruginosa) | Ratio (Staphylococcus aureus [3]) | MIC (Staphylococcus aureus [4]) | growth inhibition (GI) (Staphylococcus aureus [5]) | MIC (Escherichia coli) | MIC (Staphylococcus aureus [6]) | MIC (Staphylococcus aureus [7])
1 | Cl.NCCCOc1ccc2ncc(F)c(CCC34CCC(NCc5ccc6c(n5)NC(=O)CO6)(CC3)CO4)c2n1 | 15 mg/kg | > 50 mg/kg |  |  |  |  |  |  |  |  |  | 
2 | COc1ccc2ncc(F)c(C[C@H](O)C34CCC(NCc5ccc6c(n5)NC(=O)CO6)(CC3)CO4)c2n1.Cl | 2.5 mg/kg | 2.2 mg/kg |  |  |  |  |  |  |  |  |  | 
3 | Cl.O=C1COc2ccc(CNC34CCC(CCc5c(F)cnc6ccc(OCCO)nc56)(CC3)OC4)nc2N1 | 13 mg/kg | > 50 mg/kg |  |  |  |  |  |  |  |  |  | 
4 | NCCCCCOc1ccc2ncc(F)c(CCC34CCC(NCc5ccc6c(n5)NC(=O)CO6)(CC3)CO4)c2n1 |  |  | 1 µg/mL (≈ 1.77 µM) | 8 µg/mL (≈ 14.2 µM) | 4 µg/mL (≈ 7.08 µM) | 16 µg/mL (≈ 28.3 µM) | <4 | 0.5 µg/mL (≈ 0.885 µM) | Active | 4 µg/mL (≈ 7.08 µM) |  | 
5 | CNC(=O)COc1ccc2ncc(F)c(CCC34CCC(NCc5ccc6c(n5)NC(=O)CO6)(CC3)CO4)c2n1 |  |  | 0.5 µg/mL (≈ 0.908 µM) | 4 µg/mL (≈ 7.26 µM) | 4 µg/mL (≈ 7.26 µM) | 16 µg/mL (≈ 29.1 µM) | <4 | 0.125 µg/mL (≈ 0.227 µM) | Active | 16 µg/mL (≈ 29.1 µM) |  | 
6 | CC(C)Oc1ccc2ncc(F)c(CCC34CCC(NCc5ccc6c(n5)NC(=O)CO6)(CC3)CO4)c2n1 |  |  | 2 µg/mL (≈ 3.83 µM) | 8 µg/mL (≈ 15.3 µM) | 8 µg/mL (≈ 15.3 µM) | 32 µg/mL (≈ 61.4 µM) | <4 | 0.25 µg/mL (≈ 0.479 µM) | Active | 16 µg/mL (≈ 30.7 µM) |  | 
7 | COc1ccc2ncc(F)c(CCC34CCC(NCc5ccc6c(n5)NC(=O)CO6)(CC3)CO4)c2n1.Cl | 5.5 mg/kg | 17 mg/kg |  |  |  |  |  |  |  |  |  | 
8 | O=C1COc2ccc(CNC34CCC(CCc5c(F)cnc6ccc(OCCOCCO)nc56)(CC3)OC4)nc2N1 |  |  | 4 µg/mL (≈ 7.05 µM) | 16 µg/mL (≈ 28.2 µM) | 16 µg/mL (≈ 28.2 µM) | 32 µg/mL (≈ 56.4 µM) | <4 | 0.25 µg/mL (≈ 0.44 µM) | Active | 32 µg/mL (≈ 56.4 µM) |  | 
9 | CN(C)C(=O)COc1ccc2ncc(F)c(CCC34CCC(NCc5ccc6c(n5)NC(=O)CO6)(CC3)CO4)c2n1 |  |  | 4 µg/mL (≈ 7.08 µM) | 16 µg/mL (≈ 28.3 µM) | 16 µg/mL (≈ 28.3 µM) | 16 µg/mL (≈ 28.3 µM) | <4 | 1 µg/mL (≈ 1.77 µM) | Active | 16 µg/mL (≈ 28.3 µM) |  | 
10 | COCCOc1ccc2ncc(F)c(CCC34CCC(NCc5ccc6c(n5)NC(=O)CO6)(CC3)CO4)c2n1.Cl | 7.2 mg/kg |  |  |  |  |  |  |  |  |  |  | 
11 | Cl.O=C1COc2ccc(CNC34CCC([C@@H](O)Cc5c(F)cnc6ccc(OCCCO)nc56)(CC3)OC4)nc2N1 | 5.5 mg/kg | > 50 mg/kg |  |  |  |  |  |  |  |  |  | 
12 | N[C@H]1CO[C@H]1COc1ccc2ncc(F)c(CCC34CCC(NCc5ccc6c(n5)NC(=O)CO6)(CC3)CO4)c2n1 |  |  | 0.5 µg/mL (≈ 0.886 µM) | 4 µg/mL (≈ 7.08 µM) | 1 µg/mL (≈ 1.77 µM) | 32 µg/mL (≈ 56.7 µM) |  | 0.063 µg/mL (≈ 0.112 µM) | Active | 4 µg/mL (≈ 7.08 µM) |  | 
13 | O=C1COc2ccc(CNC34CCC(CCc5c(F)cnc6ccc(OC7CC(O)CC(O)C7)nc56)(CC3)OC4)nc2N1 (stereo not drawn) |  |  | 0.5 µg/mL (≈ 0.842 µM) | 16 µg/mL (≈ 27 µM) | 32 µg/mL (≈ 53.9 µM) | 64 µg/mL (≈ 108 µM) |  | 0.5 µg/mL (≈ 0.842 µM) | Active | 64 µg/mL (≈ 108 µM) |  | 
14 | NCC(O)COc1ccc2ncc(F)c(CCC34CCC(NCc5ccc6c(n5)NC(=O)CO6)(CC3)CO4)c2n1 (stereo not drawn) |  |  | 1 µg/mL (≈ 1.81 µM) | 16 µg/mL (≈ 29 µM) | 32 µg/mL (≈ 57.9 µM) | 16 µg/mL (≈ 29 µM) |  | 2 µg/mL (≈ 3.62 µM) | Active | 8 µg/mL (≈ 14.5 µM) |  | 
15 | N[C@H]1C(=O)N[C@@H]1COc1ccc2ncc(F)c(CCC34CCC(NCc5ccc6c(n5)NC(=O)CO6)(CC3)CO4)c2n1 |  |  | 0.5 µg/mL (≈ 0.866 µM) | 16 µg/mL (≈ 27.7 µM) | 32 µg/mL (≈ 55.4 µM) | 32 µg/mL (≈ 55.4 µM) |  | 0.5 µg/mL (≈ 0.866 µM) | Active | 16 µg/mL (≈ 27.7 µM) |  | 
16 | C[C@H]1COc2c(N3CCN(C)CC3)c(F)cc3c(=O)c(C(=O)O)cn1c23.C[C@H]1COc2c(N3CCN(C)CC3)c(F)cc3c(=O)c(C(=O)O)cn1c23.O [LEVOFLOXACIN] |  |  |  |  |  |  | >64 |  |  |  | 0.25 µg/mL | > 16 µg/mL
17 | NC1CC1COc1ccc2ncc(F)c(CCC34CCC(NCc5ccc6c(n5)NC(=O)CO6)(CC3)CO4)c2n1 (stereo not drawn) |  |  | 1 µg/mL (≈ 1.82 µM) | 4 µg/mL (≈ 7.29 µM) | 0.25 µg/mL (≈ 0.456 µM) | 16 µg/mL (≈ 29.2 µM) |  | 0.125 µg/mL (≈ 0.228 µM) | Active | 2 µg/mL (≈ 3.65 µM) |  | 
18 | C=CCOc1ccc2ncc(F)c(CCC34CCC(NCc5ccc6c(n5)NC(=O)CO6)(CC3)CO4)c2n1 |  |  | 1 µg/mL (≈ 1.92 µM) | 8 µg/mL (≈ 15.4 µM) | 2 µg/mL (≈ 3.85 µM) | 16 µg/mL (≈ 30.8 µM) | <4 | 0.063 µg/mL (≈ 0.121 µM) | Active | 8 µg/mL (≈ 15.4 µM) |  | 
19 | Cl.O=C1COc2ccc(CNC34CCC(CCc5c(F)cnc6ccc(OCCCCCO)nc56)(CC3)OC4)nc2N1 | 21 mg/kg | 43 mg/kg |  |  |  |  |  |  |  |  |  | 
20 | N[C@@H]1CO[C@H]1COc1ccc2ncc(F)c(CCC34CCC(NCc5ccc6c(n5)NC(=O)CO6)(CC3)CO4)c2n1 |  |  | 2 µg/mL (≈ 3.54 µM) | 8 µg/mL (≈ 14.2 µM) | 1 µg/mL (≈ 1.77 µM) | 16 µg/mL (≈ 28.3 µM) |  | 0.25 µg/mL (≈ 0.443 µM) | Active | 4 µg/mL (≈ 7.08 µM) |  | 
21 | N[C@@H]1C(=O)NC[C@H]1Oc1ccc2ncc(F)c(CCC34CCC(NCc5ccc6c(n5)NC(=O)CO6)(CC3)CO4)c2n1 |  |  | 16 µg/mL (≈ 27.7 µM) | 16 µg/mL (≈ 27.7 µM) | 16 µg/mL (≈ 27.7 µM) | 16 µg/mL (≈ 27.7 µM) |  | 16 µg/mL (≈ 27.7 µM) | Active | 16 µg/mL (≈ 27.7 µM) |  | 
22 | CC(C)CCOc1ccc2ncc(F)c(CCC34CCC(NCc5ccc6c(n5)NC(=O)CO6)(CC3)CO4)c2n1 |  |  | 1 µg/mL (≈ 1.82 µM) | 8 µg/mL (≈ 14.6 µM) | 16 µg/mL (≈ 29.1 µM) | 16 µg/mL (≈ 29.1 µM) |  | 0.125 µg/mL (≈ 0.227 µM) | Active | 16 µg/mL (≈ 29.1 µM) |  | 
23 | O=C1COc2ccc(CNC34CCC([C@@H](O)Cc5c(F)cnc6ccc(OCCO)nc56)(CC3)OC4)nc2N1 |  |  | 1 µg/mL (≈ 1.85 µM) | 4 µg/mL (≈ 7.41 µM) | 2 µg/mL (≈ 3.71 µM) | 16 µg/mL (≈ 29.7 µM) |  | 0.125 µg/mL (≈ 0.232 µM) | Active | 8 µg/mL (≈ 14.8 µM) |  | 
24 | O=C1COc2ccc(CNC34CCC(CCc5c(F)cnc6ccc(OCC(CO)CO)nc56)(CC3)OC4)nc2N1 |  |  | 0.5 µg/mL (≈ 0.881 µM) | 4 µg/mL (≈ 7.05 µM) | 8 µg/mL (≈ 14.1 µM) | 32 µg/mL (≈ 56.4 µM) |  | 0.125 µg/mL (≈ 0.22 µM) | Active | 16 µg/mL (≈ 28.2 µM) |  | 
25 | NCC1(COc2ccc3ncc(F)c(CCC45CCC(NCc6ccc7c(n6)NC(=O)CO7)(CC4)CO5)c3n2)CC1 |  |  | 0.5 µg/mL (≈ 0.889 µM) | 16 µg/mL (≈ 28.4 µM) | 4 µg/mL (≈ 7.11 µM) | 32 µg/mL (≈ 56.9 µM) |  | 1 µg/mL (≈ 1.78 µM) | Active | 8 µg/mL (≈ 14.2 µM) |  | 
26 | O=C1COc2ccc(CNC34CCC(CCc5c(F)cnc6ccc(OC[C@H]7C[C@@H]7C(=O)O)nc56)(CC3)OC4)nc2N1 |  |  | 0.25 µg/mL (≈ 0.433 µM) | 4 µg/mL (≈ 6.93 µM) | 16 µg/mL (≈ 27.7 µM) | 16 µg/mL (≈ 27.7 µM) |  | 0.25 µg/mL (≈ 0.433 µM) | Active | 16 µg/mL (≈ 27.7 µM) |  | 
27 | O=C(O)CCCOc1ccc2ncc(F)c(CCC34CCC(NCc5ccc6c(n5)NC(=O)CO6)(CC3)CO4)c2n1 |  |  | 0.5 µg/mL (≈ 0.884 µM) | 4 µg/mL (≈ 7.07 µM) | 16 µg/mL (≈ 28.3 µM) | 16 µg/mL (≈ 28.3 µM) |  | 0.25 µg/mL (≈ 0.442 µM) | Active | 16 µg/mL (≈ 28.3 µM) |  | 
28 | CC(C)COc1ccc2ncc(F)c(CCC34CCC(NCc5ccc6c(n5)NC(=O)CO6)(CC3)CO4)c2n1 |  |  | 0.25 µg/mL (≈ 0.467 µM) | 4 µg/mL (≈ 7.47 µM) | 2 µg/mL (≈ 3.73 µM) | 16 µg/mL (≈ 29.9 µM) | <4 | 0.063 µg/mL (≈ 0.118 µM) | Active | 16 µg/mL (≈ 29.9 µM) |  | 
